Measurements: patent publication US20110077251A1, “NOVEL 17 BETA LUPANE DERIVATIVES” (priority 2009, published 2011)
pIC50: −log10 of the molar value.

These compounds were tested on HIVIIIB (assay: HIV-1 replication in MT2 cell line without human serum (RT activity in supernatant)). Conditions: Human immunodeficiency virus 1, 120 h, MT2 cells, day 5 after infection, average if tested more than once, read-out: MT2 (HIVIIIB) IC50 range.
Type: cell-based
Method: (§1) HIV-1 Replication in MT2 cell line with and without 30% human serum: The cells are infected at a Multiciplicity of Infection (MOI) of 0.5 for 3 h and then washed twice with complete media to remove residual virus. Cells are then resuspended at 0.5×10^6/ml in complete medium (RPMI, 10% FBS, 1% sodium pyruvate), and seeded into 96-well plates (6.25×10^4/well). The cells are cultured in the presence or absence of various concentrations of test compounds in serial dilutions for 3 days at 37° C. The test compounds are serially diluted in complete medium supplemented or not with 30% human serum. After 3 days, 100 μL of cultured medium with cells are replaced with 120 μL of freshly diluted test compounds in complete medium containing or not 30% Human serum. The level of HIV-1 replication is determined at days 5 after infection by the presence of viral RT activity in harvested supernatant fluid. The IC50 values for the virus replication are determined by using GRAPHPAD PRISM software.
(§2) The IC50 of the compounds tested in accordance with the HIV replication activity assay MT2 (HIVIIIB) with or without human serum are represented in Table 6.
For C=C(C)[C@@H]1CC[C@]2(NC(=O)N[C@@H](C(=O)O)C(C)C)CC[C@]3(C)[C@H](CC[C@@H]4[C@@]5(C)CC[C@H](OC(=O)CC(C)(C)C(=O)O)C(C)(C)[C@@H]5CC[C@]43C)[C@@H]12 [Cpd 11-4, 3β-O-(3′,3′-Dimethylsuccinyl)-28-norlup-20(29)-ene-17β-yl-N-carbamoyl-L-valine], the pIC50 was > 6.70.
In the case of C=C(C)[C@@H]1CC[C@]2(NC(=O)N[C@@H](C(=O)O)C(C)C)CC[C@]3(C)[C@H](CC[C@@H]4[C@@]5(C)CC[C@H](OC(=O)CC(C)(C)CC(=O)O)C(C)(C)[C@@H]5CC[C@]43C)[C@@H]12 [Cpd 11-5, 3β-O-(3′,3′-Dimethylglutaryl)-28-norlup-20(29)-ene-17β-yl-N-carbamoyl-L-valine], the pIC50 was > 6.70.
In the case of C=C(C)[C@@H]1CC[C@]2(NC(=O)CC(C)(C)C(=O)O)CC[C@]3(C)[C@H](CC[C@@H]4[C@@]5(C)CC[C@H](OC(=O)CC(C)(C)C(=O)O)C(C)(C)[C@@H]5CC[C@]43C)[C@@H]12 [Cpd 13-4, 3β-O,17β-N-bis(3′,3′-dimethylsuccinyl)-28-norlup-20(29)-ene], the pIC50 was > 6.70.
C=C(C)[C@@H]1CC[C@]2(NC(=O)C(=O)OC)CC[C@]3(C)[C@H](CC[C@@H]4[C@@]5(C)CC[C@H](OC(=O)CC(C)(C)C(=O)O)C(C)(C)[C@@H]5CC[C@]43C)[C@@H]12 [Cpd 13-2, 3β-O-(3′,3′-Dimethylsuccinyl)-17β-methoxyoxalyl-amino-28-norlup-20(29)-ene] was tested, and the pIC50 was > 6.70.
With C=C(C)[C@@H]1CC[C@]2(NC(=O)c3ccccc3)CC[C@]3(C)[C@H](CC[C@@H]4[C@@]5(C)CC[C@H](OC(=O)CC(C)(C)C(=O)O)C(C)(C)[C@@H]5CC[C@]43C)[C@@H]12 [Cpd 13-7, 17β-Benzoylamino-3β-O-(3′,3′-dimethylsuccinyl)-28-norlup-20(29)-ene] the pIC50 was > 6.70.

The compounds below were run on HIVIIIB (assay: HIV-1 replication in MT2 cell line with 30% human serum (RT activity in supernatant)). Conditions: Human immunodeficiency virus 1, 120 h, MT2 cells, day 5 after infection, average if tested more than once, read-out: MT2 (HIVIIIB) with human serum IC50 range.
Type: cell-based
Method: as §1, §2
In the case of C=C(C)[C@@H]1CC[C@]2(NC(=O)NCC3CCCCC3)CC[C@]3(C)[C@H](CC[C@@H]4[C@@]5(C)CC[C@H](OC(=O)CC(C)(C)C(=O)O)C(C)(C)[C@@H]5CC[C@]43C)[C@@H]12 [Cpd 11-20, 3β-O-(3′,3′-Dimethylsuccinyl)-17β-(N′-cyclohexylmethyl-ureido)-28-norlup-20(29)-ene], the pIC50 was > 6.70.
In the case of C=C(C)[C@@H]1CC[C@]2(NC(=O)N3CCCCC3)CC[C@]3(C)[C@H](CC[C@@H]4[C@@]5(C)CC[C@H](OC(=O)CC(C)(C)C(=O)O)C(C)(C)[C@@H]5CC[C@]43C)[C@@H]12 [Cpd 11-11, 3β-O-(3′,3′-Dimethylsuccinyl)-17β-[(piperidine-1-carbonyl)-amino]-28-norlup-20(29)-ene], the pIC50 was > 6.70.
In the case of C=C(C)[C@@H]1CC[C@]2(N)CC[C@]3(C)[C@H](CC[C@@H]4[C@@]5(C)CC[C@H](OC(=O)[C@H]6CCC[C@@H](C(=O)O)C6)C(C)(C)[C@@H]5CC[C@]43C)[C@@H]12 [Cpd 9-3, 3β-O-(cis-Cyclohexane-3′-carboxylic acid-1′-carboxyl)-17β-amino-28-norlup-20(29)-ene], the pIC50 was > 6.70.
For C=C(C)[C@@H]1CC[C@]2(N)CC[C@]3(C)[C@H](CC[C@@H]4[C@@]5(C)CC[C@H](OC(=O)CC(C)(C)C(=O)O)C(C)(C)[C@@H]5CC[C@]43C)[C@@H]12 [Cpd 9-1, 17β-Amino-3β-O-(3′,3′-dimethylsuccinyl)-28-norlup-20(29)-ene], the pIC50 was > 6.70.
With C=C(C)[C@@H]1CC[C@]2(NC(=O)NCc3ccc(F)cc3)CC[C@]3(C)[C@H](CC[C@@H]4[C@@]5(C)CC[C@H](OC(=O)CC(C)(C)C(=O)O)C(C)(C)[C@@H]5CC[C@]43C)[C@@H]12 [Cpd 11-18, 3β-O-(3′,3′-Dimethylsuccinyl)-17β-(N′-4-fluorophenylmethyl-ureido)-28-norlup-20(29)-ene] the pIC50 was > 6.70.
With C=C(C)[C@@H]1CC[C@]2(N(C)C)CC[C@]3(C)[C@H](CC[C@@H]4[C@@]5(C)CC[C@H](OC(=O)CC(C)(C)C(=O)O)C(C)(C)[C@@H]5CC[C@]43C)[C@@H]12 [Cpd 10-3, 3β-O-(3′,3′-Dimethylsuccinyl)-17β-dimethylamino-28-norlup-20(29)-ene] the pIC50 was > 6.70.
For C=C(C)[C@@H]1CC[C@]2(NC(=O)N[C@@H](C)c3ccccc3)CC[C@]3(C)[C@H](CC[C@@H]4[C@@]5(C)CC[C@H](OC(=O)CC(C)(C)C(=O)O)C(C)(C)[C@@H]5CC[C@]43C)[C@@H]12 [Cpd 11-23, 3β-O-(3′,3′-Dimethylsuccinyl)-17β-(N′-(S)-1-phenyl-ethyl-ureido)-28-norlup-20(29)-ene], the pIC50 was > 6.70.
With C=C(C)[C@@H]1CC[C@]2(NC(=O)Nc3ccccc3)CC[C@]3(C)[C@H](CC[C@@H]4[C@@]5(C)CC[C@H](OC(=O)CC(C)(C)C(=O)O)C(C)(C)[C@@H]5CC[C@]43C)[C@@H]12 [Cpd 11-12, 3β-O-(3′,3′-Dimethylsuccinyl)-17β-(N′-phenyl-ureido)-28-norlup-20(29)-ene] the pIC50 was > 6.70.
With C=C(C)[C@@H]1CC[C@]2(NC(=O)N3CCCC3)CC[C@]3(C)[C@H](CC[C@@H]4[C@@]5(C)CC[C@H](OC(=O)CC(C)(C)C(=O)O)C(C)(C)[C@@H]5CC[C@]43C)[C@@H]12 [Cpd 11-29, 3β-O-(3′,3′-Dimethylsuccinyl)-17β-[(pyrrolidine-1-carbonyl)-amino]-28-norlup-20(29)-ene] the pIC50 was > 6.70.
In the case of C=C(C)[C@@H]1CC[C@]2(NC(=O)OC(C)(C)C)CC[C@]3(C)[C@H](CC[C@@H]4[C@@]5(C)CC[C@H](OC(=O)[C@H]6CC[C@@](C)(C(=O)O)C6(C)C)C(C)(C)[C@@H]5CC[C@]43C)[C@@H]12 [Cpd 8-3, 3β-O-[(1′S,3′R)-2′,2′,3′-Trimethyl-cyclopentane-3′-carboxylic acid-1′-carboxyl]-17β-tert-butyloxycarbonylamino-28-norlup-20(29)-ene], the pIC50 was < 6.00.
In the case of C=C(C)[C@@H]1CC[C@]2(NC(=O)Nc3nnc(C)o3)CC[C@]3(C)[C@H](CC[C@@H]4[C@@]5(C)CC[C@H](OC(=O)CC(C)(C)C(=O)O)C(C)(C)[C@@H]5CC[C@]43C)[C@@H]12 [Cpd 11-15, 3β-O-(3′,3′-Dimethylsuccinyl)-17β-[3-(5-methyl-[1,3,4]oxadiazol-2-yl)-ureido]-28-norlup-20(29)-ene], the pIC50 was > 6.70.
C=C(C)[C@@H]1CC[C@]2(NC(=O)Nc3nccs3)CC[C@]3(C)[C@H](CC[C@@H]4[C@@]5(C)CC[C@H](OC(=O)CC(C)(C)C(=O)O)C(C)(C)[C@@H]5CC[C@]43C)[C@@H]12 [Cpd 11-19, 3β-O-(3′,3′-Dimethylsuccinyl)-17β-(N′-thiazol-2-yl-ureido)-28-norlup-20(29)-ene] was tested, and the pIC50 was > 6.70.
With C=C(C)[C@@H]1CC[C@]2(NC(=O)c3ccncc3)CC[C@]3(C)[C@H](CC[C@@H]4[C@@]5(C)CC[C@H](OC(=O)[C@H]6CCC[C@@H](C(=O)O)C6)C(C)(C)[C@@H]5CC[C@]43C)[C@@H]12 [Cpd 13-15, 3β-O-(cis-Cyclohexane-3′-carboxylic acid-1′-carboxyl)-17β-(pyridin-4-ylcarbonyl)-amino-28-norlup-20(29)-ene] the pIC50 was < 6.00.
For C=C(C)[C@@H]1CC[C@]2(NC(=O)NCC3CCN(C)CC3)CC[C@]3(C)[C@H](CC[C@@H]4[C@@]5(C)CC[C@H](OC(=O)CC(C)(C)C(=O)O)C(C)(C)[C@@H]5CC[C@]43C)[C@@H]12 [Cpd 11-14, 3β-O-(3′,3′-Dimethylsuccinyl)-17β-[N′-(1-methyl-piperidin-4-ylmethyl)-ureido]-28-norlup-20(29)-ene], the pIC50 was > 6.70.
In the case of C=C(C)[C@@H]1CC[C@]2(NC(=O)N(C)C)CC[C@]3(C)[C@H](CC[C@@H]4[C@@]5(C)CC[C@H](OC(=O)CC(C)(C)C(=O)O)C(C)(C)[C@@H]5CC[C@]43C)[C@@H]12 [Cpd 11-13, 3β-O-(3′,3′-Dimethylsuccinyl)-17β-(N′,N′-dimethyl-ureido)-28-norlup-20(29)-ene], the pIC50 was > 6.70.
Work on C=C(C)[C@@H]1CC[C@]2(NC(=O)NC(C)C)CC[C@]3(C)[C@H](CC[C@@H]4[C@@]5(C)CC[C@H](OC(=O)CC(C)(C)C(=O)O)C(C)(C)[C@@H]5CC[C@]43C)[C@@H]12 [Cpd 11-16, 3β-O-(3′,3′-Dimethylsuccinyl)-17β-(N′-isopropyl-ureido)-28-norlup-20(29)-ene] yielded a pIC50 of 6.00 to 6.70.
With C=C(C)[C@@H]1CC[C@]2(NC(=O)NCC3CCOCC3)CC[C@]3(C)[C@H](CC[C@@H]4[C@@]5(C)CC[C@H](OC(=O)CC(C)(C)C(=O)O)C(C)(C)[C@@H]5CC[C@]43C)[C@@H]12 [Cpd 11-21, 3β-O-(3′,3′-Dimethylsuccinyl)-17β-(N′-tetrahydropyran-4-ylmethyl-ureido)-28-norlup-20(29)-ene] the pIC50 was > 6.70.

Same assay, conditions: MT2 cells, day 5 after infection, average if tested more than once, read-out: MT2 (HIVIIIB) with human serum IC50 range
In the case of C=C(C)C1CCC2(NCC3CC3)CCC3(C)C(CCC4C5(C)CCC(OC(=O)CC(C)(C)C(=O)O)C(C)(C)C5CCC43C)C12 (stereo not drawn) [Cpd 10-2, 17β-(Cyclopropylmethyl-amino)-3β-O-(3′,3′-dimethylsuccinyl)-28-norlup-20(29)-ene], the pIC50 was > 6.70.
With “3β-O-(2′,2′-Dimethylsuccinyl)-17β-tert-butyloxycarbonylamino-28-norlup-20(29)-ene [Cpd 8-2]” the pIC50 was < 6.00.
